# pIC50: −log10 of the molar value.
# Tests used:
# Format in all cases: cell-based
# primary spheres of DU145 = test: 3D Primary Sphere Assay; details: GC 49(±5), GCD 41(±4)
# Method: (§1) The ability of cancer stem cells to form spheres in a serum free media was determined by 3D Primary Sphere Assay, where the spheres were in a suspended form. Through this assay the potency of the compound Ethyl-5,6-dimethyl-4-(piperidin-1-yl)thieno[2,3-d]pyrimidine to kill cancer stem cells in comparison to the standard chemotherapeutic drug such as Cisplatin was evaluated as follows. The Cells were grown in three dimensions on a plastic substrate, harvested in suspension in serum-free media, then the cells in the sample were trypsinised and a single cell suspension was formed by passing through a cell strainer. The cells were diluted according to the predetermined plating efficiency for the cell line being studied by suspending the cells in stem cell culture medium. 100 uL of this suspension was added into each well of a 96 well suspension plate, and the plate was incubated at 37 degrees Celsius in 5% CO2 atmosphere for 24 hours, then 2 uL of appropriate concentrations of the drugs were added into each respective well along with 100 uL of stem cell culture medium, and the plates incubated at 37 degrees Celsius under 5% CO2 atmosphere for 72 hours. 2.5 uL of the appropriate drug concentration was added to each respective well along with 50 uL of stem cell culture medium and the plates were incubated at 37 degrees Celsius under 5% CO2 atmosphere for 72 hours. 3 uL of the appropriate concentration of the compound as mentioned below was added to each respective well along with 50 uL of stem cell culture medium, incubated at 37 degrees Celsius under 5% CO2 atmosphere for 72 hours, the spheres formed were observed under a microscope, counted and scored by size. Results of the in vitro 3D sphere forming stem cell assay were set forth in a tabular manner. […] GC refers to a growth control performed in the absence of drug or solvent (DMSO). GCD refers to a growth control performed in the absence of drug, but in the presence of DMSO.
# [1] = tested on: primary spheres of MDA MB231; test: 3D Primary Sphere Assay; details: GC 92(±7), GCD 83(±6)
# Method: as §1
# primary spheres of PC3 = test: 3D Primary Sphere Assay; details: GC 120(±10), GCD 103(±9)
# Method: as §1
# [2] = tested on: CD44 population of PC3 cells; test: Flow cytometry study, CD44/CD24 staining; details: PC3 cells exposed to IC25 drug conc. for 48 hrs; untreated 85.61% cells CD44
# Method: For Flow cytometry assay the PC3 cancer cells (0.35×106) were cultured in Dulbecco's Modified Eagle's medium (DMEM) with 10% Fetal Bovine Serum (F.B.S) in 60 mm tissue culture plates for 24 hrs in 5% CO2 at 37° C. Cells were then exposed to IC25 drug conc. of Cisplatin in duplicates. Similarly other sets of cells were treated with IC25 drug conc. of Ethyl-5,6-dimethyl-4-(piperidin-1-yl)thieno[2,3-d]pyrimidine for 48 hrs. and incubated in 5% CO2 at 37° C. for 48 hrs. Appropriate controls that is growth control (cells+DMEM medium) and solvent control (cells+control DMEM medium+DMSO) and medium control (DMEM) were also kept along with the experimental sets. After 48 hrs the cells were observed under the microscope, trypsinised, washed with Dulbecco's phosphate-buffered saline (D.P.B.S.) 50 μl of cells were taken for each set and 5 μl of each of the CD44-PE labeled and CD24-FITC labeled antibodies were added. The sets were incubated for 45 mins at 4° C. for proper binding of antibodies. After incubation the cells were washed with 200 μl of D.P.B.S by centrifugation. The supernatant was discarded and the cells were finally suspended in 300 μl of FACS buffer (4% Fetal Bovine Serum in D.P.B.S). Samples were kept at 4° C. in dark till they were acquired on FACS. Acquisition was done on BD-FACS Accuri C6.
# L929 = test: In vitro colorimetric cell death assay (MTT); details: L929 fibroblast cancer cell line, 48 hours with compound, read-out: IC 50 Value
# Method: (§2) For assessing cell viability in vitro colorimetric cell death assay was carried out where the cells were grown in two-dimensional surface as follows. Cancer cells with plating efficiency as mentioned herein below for respective cell lines were plated in a 96 well plate. The plate was incubated for 24 hours in a 5% CO2 atmosphere at 37 degrees Celsius, a range of concentrations from 10^−3 M to 10^−6 M of the compound Ethyl-5,6-dimethyl-4-(piperidin-1-yl)thieno[2,3-d]pyrimidine was added to the wells, the plates were incubated further for 48 hours in a 5% CO2 atmosphere, the plate was centrifuged twice at 3000 rpm for 3 minutes, the supernatant fluid was discarded, 100 uL of 0.5 mg/mL 3-(4,5-Dimethylthiazol-2-yl)-2,5-Diphenyltetrazolium Bromide (MTT) solution was added and the plate was incubated for 4 hours in a 5% CO2 atmosphere at 37 degrees Celsius. The plate was then centrifuged twice at 3000 rpm for 3 minutes, supernatant was aspirated very carefully, 200 uL Dimethyl sulfoxide (DMSO) was added to each well to solubilize MTT crystals and mixed well by shaking the plate, the plate was incubated for 10 minutes in a 5% CO2 atmosphere at 37 degrees Celsius, the plate was placed on the shaker of an ELISA plate reader and the absorbance at 570 nm was measured, the percentage of viable cells remaining was calculated by first subtracting the background absorbance then comparing to the absorbance of a non-drug-treated cell sample, and the results were plotted on a graph to determine the IC50 for the compound Ethyl-5,6-dimethyl-4-(piperidin-1-yl)thieno[2,3-d]pyrimidine which was calculated by regression analysis.
# MDAMB231 = test: In vitro colorimetric cell death assay (MTT); details: MDAMB231 breast cancer cell line, 48 hours with compound, read-out: IC 50 Value
# Method: as §2
# Bu25tk = test: In vitro colorimetric cell death assay (MTT); details: Bu25tk cervical cancer cell line, 48 hours with compound, read-out: IC 50 Value
# Method: as §2
# T47D = test: In vitro colorimetric cell death assay (MTT); details: T47D breast cancer cell line, 48 hours with compound, read-out: IC 50 Value
# Method: as §2
# LNCaP = test: In vitro colorimetric cell death assay (MTT); details: LNCaP prostate cancer cell line, 48 hours with compound, read-out: IC 50 Value
# Method: as §2
# SiHa = test: In vitro colorimetric cell death assay (MTT); details: SiHa cervical cancer cell line, 48 hours with compound, read-out: IC 50 Value
# Method: as §2
# HeLa = test: In vitro colorimetric cell death assay (MTT); details: HeLa cervical cancer cell line, 48 hours with compound, read-out: IC 50 Value
# Method: as §2
# Colo320 = test: In vitro colorimetric cell death assay (MTT); details: Colo320 colon cancer cell line, 48 hours with compound, read-out: IC 50 Value
# Method: as §2
# PC3 = test: In vitro colorimetric cell death assay (MTT); details: PC3 prostate cancer cell line, 48 hours with compound, read-out: IC 50 Value
# Method: as §2
# DU145 = test: In vitro colorimetric cell death assay (MTT); details: DU145 prostate cancer cell line, 48 hours with compound, read-out: IC 50 Value
# Method: as §2
# Hep3B = test: In vitro colorimetric cell death assay (MTT); details: Hep3B hepatic cancer cell line, 48 hours with compound, read-out: IC 50 Value
# Method: as §2
# MCF-7 = test: In vitro colorimetric cell death assay (MTT); details: MCF-7 breast cancer cell line, 48 hours with compound, read-out: IC 50 Value
# Method: as §2
# [3] = tested on: CD44 population of DU145 cells; test: Flow cytometry study, CD44/CD24 staining; details: DU145 cells exposed to IC25 drug conc. for 48 hrs; untreated 70.18% cells CD44
compound,measurement,setting,value
N.N.[Cl][Pt][Cl] [Cisplatin],total number of spheres formed,"primary spheres of DU145; DU145, final conc. 1.25 μM",48(±5)
same,total number of spheres formed,"primary spheres of DU145; DU145, final conc. 12.5 μM",41(±5)
same,total number of spheres formed,"primary spheres of DU145; DU145, final conc. 125 μM",23(±4)
same,total number of spheres formed,"primary spheres of DU145; DU145, final conc. 1250 μM",12(±3)
same,total number of spheres formed,"[1]; MDA MB231, final conc. 1.25 μM",76(±8)
same,total number of spheres formed,"[1]; MDA MB231, final conc. 12.5 μM",52(±6)
same,total number of spheres formed,"[1]; MDA MB231, final conc. 125 μM",39(±3)
same,total number of spheres formed,[1]; MDA MB231,25(±5)
same,total number of spheres formed,"primary spheres of PC3; PC3, final conc. 1.25 μM",109(±6)
same,total number of spheres formed,"primary spheres of PC3; PC3, final conc. 12.5 μM",107(±9)
same,total number of spheres formed,"primary spheres of PC3; PC3, final conc. 125 μM",88(±6)
same,total number of spheres formed,primary spheres of PC3; PC3,74(±7)
same,effect on CD44 population,[2],did not have much effect
same,pIC50,L929,4.54
same,pIC50,MDAMB231,4.31
same,pIC50,Bu25tk,4.23
same,pIC50,T47D,4.23
same,pIC50,LNCaP,4.28
same,pIC50,SiHa,4.45
same,pIC50,HeLa,4.47
same,pIC50,Colo320,4.42
same,pIC50,PC3,4.95
same,pIC50,DU145,4.50
same,pIC50,Hep3B,4.43
same,pIC50,MCF-7,4.53
same,effect on CD44 population,[3],did not have much effect
